# Assay results published in patent US11242343B2 (Incyte Corporation, priority 2016, dated 2022).
# Target: HPK1 (Homo sapiens, UniProt Q92918)
# Assay: HPK1 Kinase Binding Assay
# Settings: LanthaScreen tracer 222 binding, one hour incubation at 25° C.
# Procedure: Example A. HPK1 Kinase Binding Assay
# A stock solution of 1 mM test compound was prepared in DMSO. The compound plate was prepared by 3-fold and 11-point serial dilutions. 0.1 μL of the compound in DMSO was transferred from the compound plate to the white 384 well polystyrene plates. The assay buffer contained 50 mM HEPES, pH 7.5, 0.01% Tween-20, 5 mM MgCl2, 0.01% BSA, and 5 mM DTT. 5 μl of 4 nM active HPK1 (SignalChem M23-11G) prepared in the buffer was added to the plate. The enzyme concentration given was based on the given stock concentration reported by the vender. 5 μl of 18 nM tracer 222 (ThermoFisher PV6121) and 4 nM LanthaScreen Eu-Anti GST antibody (ThermoFisher PV5595) were added. After one hour incubation at 25° C., the plates were read on a PHERAstar FS plate reader (BMG Labtech). Ki values were determined.
# Chain of HPK1 (Q92918 whole entry, looked up): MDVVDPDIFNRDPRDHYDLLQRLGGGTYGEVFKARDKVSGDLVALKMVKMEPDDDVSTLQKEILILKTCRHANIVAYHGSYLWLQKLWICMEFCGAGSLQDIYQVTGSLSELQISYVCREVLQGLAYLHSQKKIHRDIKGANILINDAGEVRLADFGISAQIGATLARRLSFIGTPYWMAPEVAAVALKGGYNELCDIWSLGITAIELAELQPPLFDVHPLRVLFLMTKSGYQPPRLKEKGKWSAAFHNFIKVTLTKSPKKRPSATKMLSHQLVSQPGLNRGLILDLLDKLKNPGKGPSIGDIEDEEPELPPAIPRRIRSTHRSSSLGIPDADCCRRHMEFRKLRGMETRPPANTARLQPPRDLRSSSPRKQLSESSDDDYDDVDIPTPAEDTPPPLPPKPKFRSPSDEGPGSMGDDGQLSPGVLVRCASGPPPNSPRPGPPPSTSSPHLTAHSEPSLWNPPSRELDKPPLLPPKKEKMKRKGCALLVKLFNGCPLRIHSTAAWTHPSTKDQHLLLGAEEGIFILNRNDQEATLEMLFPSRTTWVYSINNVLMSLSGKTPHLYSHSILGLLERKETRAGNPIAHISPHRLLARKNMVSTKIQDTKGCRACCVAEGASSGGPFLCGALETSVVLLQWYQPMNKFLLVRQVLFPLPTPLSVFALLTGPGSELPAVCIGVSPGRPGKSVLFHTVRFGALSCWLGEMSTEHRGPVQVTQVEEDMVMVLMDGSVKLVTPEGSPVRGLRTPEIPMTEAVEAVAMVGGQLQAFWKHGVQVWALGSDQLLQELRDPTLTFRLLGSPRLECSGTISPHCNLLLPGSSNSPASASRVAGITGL
row,Ki [nM],SMILES
1,≤ 100,"CNCc1cc(C)c(-c2nc3c(-c4cnn(C)c4)n[nH]c3cc2C#N)c(F)c1 [Example 66, 5-(2-Fluoro-6-methyl-4-((methylamino)methyl)phenyl)-3-(1-methyl-1H-pyrazol-4-yl)-1H-pyrazolo[4,3-b]pyridine-6-carbonitrile]"
2,≤ 100,"CCN1CCN(c2ccc(-c3n[nH]c4cc(C#N)c(-c5c(C)cc(CNC)cc5F)nc34)cc2)CC1 [Example 69, 3-(4-(4-Ethylpiperazin-1-yl)phenyl)-5-(2-fluoro-6-methyl-4-((methylamino)methyl)phenyl)-1H-pyrazolo[4,3-b]pyridine-6-carbonitrile]"
3,≤ 100,"CNCc1cc(C)c(-c2nc3c(-c4cnc(N5CCOCC5)nc4)n[nH]c3cc2C#N)c(F)c1 [Example 70, 5-(2-Fluoro-6-methyl-4-((methylamino)methyl)phenyl)-3-(2-morpholinopyrimidin-5-yl)-1H-pyrazolo[4,3-b]pyridine-6-carbonitrile]"
4,≤ 100,"CNCc1cc(C)c(-c2nc3c(-c4ccc(C(C)(C)O)nc4)n[nH]c3cc2C#N)c(F)c1 [Example 71, 5-(2-Fluoro-6-methyl-4-((methylamino)methyl)phenyl)-3-(6-(2-hydroxypropan-2-yl)pyridin-3-yl)-1H-pyrazolo[4,3-b]pyridine-6-carbonitrile]"
5,≤ 100,Cn1cc(-c2n[nH]c3cc(C#N)c(-c4c(F)ccc5c4CCNC5)nc23)cn1 [Example 74]
6,≤ 100,CCN1CCN(c2ccc(-c3n[nH]c4cc(C#N)c(-c5c(F)ccc6c5CCNC6)nc34)cc2)CC1 [Example 75]
7,≤ 100,Cc1cccc(F)c1-c1nc2c(-c3cnn(C)c3)n[nH]c2cc1C#N [Example 77]

# Further lines, the compound ahead of its results:
row,SMILES,Ki [nM]
1,"Cc1cccc(F)c1-c1nc2c(-c3cnc(N4CCOCC4)nc3)n[nH]c2cc1C#N [Example 63, 5-(2-Fluoro-6-methylphenyl)-3-(2-morpholinopyrimidin-5-yl)-1H-pyrazolo[4,3-b]pyridine-6-carbonitrile]",≤ 100
2,CCN1CCN(c2ccc(-c3n[nH]c4cc(C#N)c(-c5c(C)cccc5F)nc34)cc2)CC1 [Example 64],≤ 100
3,"CNC(=O)c1ccc(-c2n[nH]c3cc(C#N)c(-c4c(C)cccc4F)nc23)cn1 [Example 65, 5-(6-Cyano-5-(2-fluoro-6-methylphenyl)-1H-pyrazolo[4,3-b]pyridin-3-yl)-N-methylpicolinamide]",≤ 100
4,"CNCc1cc(C)c(-c2nc3c(-c4ccc(N5CCN(C)CC5)nc4)n[nH]c3cc2C#N)c(F)c1 [Example 67, 5-(2-Fluoro-6-methyl-4-((methylamino)methyl)phenyl)-3-(6-(4-methylpiperazin-1-yl)pyridin-3-yl)-1H-pyrazolo[4,3-b]pyridine-6-carbonitrile]",≤ 100
5,"CNCc1cc(C)c(-c2nc3c(-c4cnc(N5CCN(C)CC5)nc4)n[nH]c3cc2C#N)c(F)c1 [Example 68, 5-(2-Fluoro-6-methyl-4-((methylamino)methyl)phenyl)-3-(2-(4-methylpiperazin-1-yl)pyrimidin-5-yl)-1H-pyrazolo[4,3-b]pyridine-6-carbonitrile]",≤ 100
6,"CNCc1cc(C)c(-c2nc3c(-c4ccc(C(=O)NC)nc4)n[nH]c3cc2C#N)c(F)c1 [Example 72, 5-(6-Cyano-5-(2-fluoro-6-methyl-4-((methylamino)methyl)phenyl)-1H-pyrazolo[4,3-b]pyridin-3-yl)-N-methylpicolinamide]",≤ 100
7,CN1CCN(c2ccc(-c3n[nH]c4cc(C#N)c(-c5c(F)ccc6c5CCNC6)nc34)cn2)CC1 [Example 76],≤ 100
